Converted amounts (≈) assume the structure as drawn. The source made the active and inactive calls. The rule behind the calls is not given here.
Tests used:
[1] = test system: A549; assay: Increase in Fas protein level in A549 cells at 40 ug/ml after 48 hrs relative to control; assay type: functional, Homo sapiens
[2] = test system: A549; assay: Antiproliferative activity against human A549 cells after 48 hrs by MTT assay; assay type: functional, cell-based; settings: A549, 48 h
[3] = test system: A549; assay: Cell cycle arrest in A549 cells assessed as accumulation at G1 phase at 40 ug/ml after 48 hrs; assay type: functional, Homo sapiens
[4] = test system: A549; assay: Cell cycle arrest in A549 cells assessed as accumulation at S phase at 40 ug/ml after 48 hrs; assay type: functional, Homo sapiens
[5] = test system: A549; assay: Increase in P53 protein level in A549 cells at 40 ug/ml after 48 hrs relative to control; assay type: functional, Homo sapiens
[6] = test system: A549; assay: Induction of apoptosis in A549 cells assessed as DNA fragmentation at 40 ug/ml after 48 hrs by acridine orange assay; assay type: functional, cell-based; settings: Homo sapiens
[7] = test system: A549; assay: Cell cycle arrest in A549 cells assessed as accumulation at G2/M phase at 40 ug/ml after 48 hrs; assay type: functional, Homo sapiens
[8] = test system: A549; assay: Effect on morphology in A549 cells assessed as formation of apoptotic bodies at 40 ug/ml after 48 hrs; assay type: functional, cell-based; settings: Homo sapiens

Row | IC50 [2] [µg/mL] | Compound | Activity [1] [%] | Activity [3] [%] | Activity [4] [%] | Activity [5] [%] | Activity [6] | Activity [7] [%] | Activity [8]
1 | 22.9 (≈ 65.9 µM) | COc1ccc(N2CC(COc3ccc(Cl)cc3)OCC2=O)cc1 (stereo not given) | 23.45 | 79.44 | 10.99 | 22.41 | Active |  | 
2 | 16.6 (≈ 50.6 µM) | O=C1COC(COc2ccc([N+](=O)[O-])cc2)CN1c1ccccc1 (stereo not given) | 40.97 | 73.3 |  | 33.73 | Active | 18.64 | Active
3 | 38 (≈ 105 µM) | O=C1COC(COc2ccc([N+](=O)[O-])cc2)CN1c1ccc(Cl)cc1 (stereo not given) | 21.53 | 63.25 | 14.82 | 23.98 | Active | 21.93 | 

— ChEMBL document CHEMBL1147941, “Novel morpholin-3-one derivatives induced apoptosis and elevated the level of P53 and Fas in A549 lung cancer cells” (Bioorg Med Chem, 2007)
